{"source": "patent US20260355199A1", "about": "“COMPOSITIONS AND METHODS FOR TREATING OR PREVENTING NONALCOHOLIC STEATOHEPATITIS (NASH), ANOREXIA, DEPRESSION, ENDOMETRIOSIS, AND OTHER DISEASES OR DISORDERS” (priority 2022, published 2026)", "key": {"TET3 [1]": {"system": "TET3", "assay": "TET3 protein stability (cycloheximide) in RAW 264.7 cells", "assay_type": "cell-based, mouse", "settings": "10 μM, with cycloheximide", "method": "For TET3 protein stability assay, cells in 24-well plates were incubated with vehicle or Bobcat339 at a final concentration of 10 μM for 3 hours, followed by addition of cycloheximide (CHX, Cell Signaling, 2112) at a final concentration of 50 μg/mL in the presence of 10 μM of Bobcat339. Proteins were harvested at 0, 1, 2, and 3 hours after addition of CHX."}, "[2]": {"system": "activity-based anorexia (ABA) mice", "assay": "Activity-based anorexia (ABA) model", "assay_type": "in vivo, mouse", "source_text": "The importance of AgRP neurons in psychiatric conditions such as anorexia was further underscored by a recent report showing that chemogenetic activation of AgRP neurons in mice during ABA attenuated bodyweight loss with reduction in excessive physical activity (Hickey et al., 2022, Mol Psychiatry). […] Thus, peripubertal female mice were exposed to the ABA paradigm as previously described (Miletta, M. C. et al., 2020, Nature Metabolism, 2:1204-1211). Mice were singly housed at postnatal day 36 (P36) with ad libitum access to food, water, and a running wheel. After 4 days of acclimation at P40, mice were food restricted with free access to food for only 2 h daily for 3 days. At P40 and before the onset of food restriction, mice received first intraperitoneal (i.p.) injection of Bobcat339 or vehicle, with second and third injections performed at P47 and P54, respectively (FIG. 17A).\nBobcat339 powder (Sigma-Aldrich, SML2611) was freshly dissolved in DMSO (vehicle) at a concentration of 50 mg/mL and filtered through a 0.22 micron. It was further diluted with 1×PBS to a final concentration of 0.5 mg/mL before injections. Mice were injected intraperitoneally with Bobcat339 at 1 mg/kg, 2.5 mg/kg, or 4 mg/kg.\nOn P36, animals were single housed with free access to food and water and 24 h access to a running wheel. After 4 days of acclimation, on P40, all food was removed from the cage and returned only for 2 h daily (free food access from 19:00 to 21:00) and 24 h access to a running wheel for 3 days. On P43, 24 h ad libitum access to food was returned and the running wheel access was blocked to allow the animals to recover. The animals were allowed to recover for at least 1 week before undergoing behavioral testing. Continuous multiday analysis of running wheel activity was recorded using VitalView Data Acquisition System software version 5.1 (Starr Life Science). Food intake was measured after measurement of the food pellets before and after the 2 h food restriction. Body weight was monitored in the morning. Body composition was assessed using EchoMRI analysis."}, "Caspase-1": {"system": "Caspase-1", "assay": "Caspase-1 assay in human MDMs", "assay_type": "cell-based", "settings": "10 μM, 48 h", "method": "For TET3 expression restoration experiments, cells seeded in 24-well plates were infected with Ad-GFP or Ad-TET3 at 4000 gc/cell. Following 16 h of infection, vehicle or Bobcat339 were added at a final concentration of 10 μM. Protein and RNA were isolated 48 hours later and analyzed.\nThese were carried out using the Apoptosis/Caspase-1 assay kit (MyBioSource, MBS258046). Briefly, after wash with PBS, cells were incubated with 1×FAM-FLCA working solution in 300 μL growth media at 37 °C for 1 hour, followed by wash with 1× Cellular Wash Buffer three times. Hoechst 33342 was applied to counter-stain the cells for 15 min. Cells were then covered with mounting media and coverslips and scoped using a Keyence BZ-X700 fluorescence microscope."}, "TET3 [3]": {"system": "TET3", "assay": "TET3 protein in SH-SY5Y human neuronal cells", "assay_type": "cell-based", "source_text": "Mouse GT1-7 hypothalamic neuronal cell line (Sigma-Aldrich, SCC116) and human SH-SY5Y neuroblastoma cell line (Sigma Aldrich, 94030304) were purchased and cultured according to the manufacturers' instructions. Purified Ad-TET3 adenovirus (Ad-FLAG.h-TET3, ADV-225322, Vector Biolabs) expressing human TET3 from a CMV promoter and Ad-GFP control adenovirus (1060, Vector Biolabs) were purchased.\nFor Bobcat339 treatment (FIG. 15A and FIG. 15B), GT1-7 cells grown in 24-well plates at 2×10^5 cells/well were incubated with vehicle or Bobcat339 at a final concentration of 10 μM for 6 h, followed by RNA and protein extractions. For TET3 protein stability assay (FIG. 15B), GT1-7 cells in 24-well plates at 2×10^5 cells/well were incubated with vehicle or Bobcat339 at a final concentration of 10 μM for 3 hours, followed by addition of cycloheximide (CHX, Cell Signaling, 2112) at a final concentration of […] in the presence of 10 μM of Bobcat339. Proteins were harvested at 0, 1, 2, and 3 hours after addition of CHX. For TET3 expression restoration experiments (FIG. 15C and FIG. 15D), GT1-7 or SH-SY5Y cells seeded in 24-well plates at 2×10^5 cells/well were infected with Ad-GFP or Ad-TET3 at 4000 gc/cell. Following 16 h of infection, vehicle or Bobcat339 were added at a final concentration of 10 μM. Protein and RNA were isolated 48 h later and analyzed. […]"}}, "note": "“Also recorded” adds a separate entry of the source.", "data": [{"smiles": "Nc1nc(=O)n(-c2cccc(-c3ccccc3)c2)cc1Cl", "note": "[Bobcat339, 4-Amino-1-[1,1′-biphenyl]-3-yl-5-chloro-2(1H)-pyrimidinone]", "values": [{"measurement": "TET3 protein stability", "setting": "TET3 [1]", "result": "less stable"}, {"measurement": "half-life of TET3", "setting": "TET3 [1]; RAW", "result": "~ 80 minutes"}, {"measurement": "half-life of TET3", "setting": "TET3 [1]; macrophages", "result": "~ 80 min"}, {"measurement": "lethality in the ABA model", "setting": "[2]; ABA", "result": "diminished lethality"}, {"measurement": "body weight, daily food intake, and running wheel account", "setting": "[2]; ABA, acclimation", "result": "no differences"}, {"measurement": "body weight", "setting": "[2]; ABA, food restriction", "result": "able to maintain their body weight throughout the experiment"}, {"measurement": "food intake", "setting": "[2]; ABA, food restriction", "result": "increased feeding; also recorded: a significant increase in food intake"}, {"measurement": "wheel running", "setting": "[2]; ABA, food restriction", "result": "decreased compulsive running; also recorded: decline in compulsive wheel running"}, {"measurement": "body composition", "setting": "[2]; end of the recovery period", "result": "No differences in body composition"}, {"measurement": "onset of appetite-stimulating and anti-stress effects", "setting": "[2]; i.p.", "result": "≤ 24", "unit": "h"}, {"measurement": "duration of appetite-stimulating and anti-stress effects", "setting": "[2]; single i.p. injection", "result": "lasted for at least one week"}, {"measurement": "therapeutic effect in a mouse model of anorexia", "setting": "[2]; summary", "result": "elicited therapeutic effects in a mouse model of anorexia"}, {"measurement": "apoptosis (Caspase-1)", "setting": "Caspase-1", "result": "increased apoptosis; also recorded: a significant increase in pyroptotic cell death"}, {"measurement": "TET3 protein level / degradation", "setting": "TET3 [3]", "result": "induced protein degradation of TET3"}]}]}
